In PubChem BioAssay (NCI):
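The concentration for 50% growth inhibition is given as GI50. The concentration for full growth arrest is given as TGI.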

Columns and labels:
Assay in all cases: NCI tumour cell line growth inhibition, 384-well format
SK-MEL-5 melanoma = system: SK-MEL-5 melanoma
IGROV1 ovarian = system: IGROV1 ovarian
K-562 leukemia = system: K-562 leukemia
UACC-62 melanoma = system: UACC-62 melanoma
LOX IMVI melanoma = system: LOX IMVI melanoma
MALME-3M melanoma = system: MALME-3M melanoma
NCI-H322M lung = system: NCI-H322M lung
BT-549 breast = system: BT-549 breast
DU-145 prostate = system: DU-145 prostate
COLO 205 colon = system: COLO 205 colon
NCI-H460 NSCLC = system: NCI-H460 NSCLC
MDA-MB-468 breast = system: MDA-MB-468 breast
UACC-257 melanoma = system: UACC-257 melanoma
MDA-MB-435 melanoma = system: MDA-MB-435 melanoma
SNB-75 CNS = system: SNB-75 CNS
SN12C renal = system: SN12C renal
SF-295 CNS = system: SF-295 CNS
OVCAR-8 ovarian = system: OVCAR-8 ovarian
UO-31 renal = system: UO-31 renal
EKVX NSCLC = system: EKVX NSCLC
HL-60(TB) leukemia = system: HL-60(TB) leukemia
SK-MEL-2 melanoma = system: SK-MEL-2 melanoma
786-0 renal = system: 786-0 renal
SK-MEL-28 melanoma = system: SK-MEL-28 melanoma
SF-539 CNS = system: SF-539 CNS
HCT-15 colon = system: HCT-15 colon
RXF 393 renal = system: RXF 393 renal
SK-OV-3 ovarian = system: SK-OV-3 ovarian
MCF7 breast = system: MCF7 breast
MOLT-4 leukemia = system: MOLT-4 leukemia
SR leukemia = system: SR leukemia
HOP-92 NSCLC = system: HOP-92 NSCLC
NCI/ADR-RES ovarian = system: NCI/ADR-RES ovarian
SF-268 CNS = system: SF-268 CNS
RPMI-8226 leukemia = system: RPMI-8226 leukemia
U251 glioblastoma = system: U251 glioblastoma
MDA-MB-231 breast = system: MDA-MB-231 breast
TK-10 renal = system: TK-10 renal
KM12 colon = system: KM12 colon
NCI-H226 lung = system: NCI-H226 lung
T-47D breast = system: T-47D breast
PC-3 prostate = system: PC-3 prostate
OVCAR-5 ovarian = system: OVCAR-5 ovarian
HCT-116 colon = system: HCT-116 colon
NCI-H522 lung = system: NCI-H522 lung
HS 578T breast = system: HS 578T breast
HCC-2998 colon = system: HCC-2998 colon

O=C(/C=C/c1cccc(S(=O)(=O)Nc2ccccc2)c1)NO
GI50 (SK-MEL-5 melanoma): 155 nM | TGI (SK-MEL-5 melanoma): 393 nM | GI50 (IGROV1 ovarian): 271 nM | TGI (IGROV1 ovarian): 781 nM | GI50 (K-562 leukemia): 188 nM | TGI (K-562 leukemia): 394 nM | GI50 (UACC-62 melanoma): 217 nM | TGI (UACC-62 melanoma): 597 nM | GI50 (LOX IMVI melanoma): 385 nM | TGI (LOX IMVI melanoma): 1410 nM | GI50 (MALME-3M melanoma): 184 nM | TGI (MALME-3M melanoma): 450 nM | GI50 (NCI-H322M lung): 465 nM | TGI (NCI-H322M lung): 1840 nM | GI50 (BT-549 breast): 925 nM | TGI (BT-549 breast): 2820 nM | GI50 (DU-145 prostate): 260 nM | TGI (DU-145 prostate): 793 nM | GI50 (COLO 205 colon): 330 nM | TGI (COLO 205 colon): 791 nM | GI50 (NCI-H460 NSCLC): 350 nM | TGI (NCI-H460 NSCLC): 1500 nM | GI50 (MDA-MB-468 breast): 196 nM | TGI (MDA-MB-468 breast): 487 nM | GI50 (UACC-257 melanoma): 289 nM | TGI (UACC-257 melanoma): 1030 nM | GI50 (MDA-MB-435 melanoma): 492 nM | TGI (MDA-MB-435 melanoma): 1450 nM | GI50 (SNB-75 CNS): 258 nM | TGI (SNB-75 CNS): 796 nM | GI50 (SN12C renal): 853 nM | TGI (SN12C renal): 2250 nM | GI50 (SF-295 CNS): 607 nM | TGI (SF-295 CNS): 1910 nM | GI50 (OVCAR-8 ovarian): 225 nM | TGI (OVCAR-8 ovarian): 985 nM | GI50 (UO-31 renal): 1020 nM | TGI (UO-31 renal): 3170 nM | GI50 (EKVX NSCLC): 1810 nM | TGI (EKVX NSCLC): 8530 nM | GI50 (HL-60(TB) leukemia): 223 nM | TGI (HL-60(TB) leukemia): 373 nM | GI50 (SK-MEL-2 melanoma): 265 nM | TGI (SK-MEL-2 melanoma): 558 nM | GI50 ([…]-0 renal): 898 nM | TGI (786-0 renal): 2780 nM | GI50 (SK-MEL-28 melanoma): 565 nM | TGI (SK-MEL-28 melanoma): 1890 nM | GI50 (SF-539 CNS): 616 nM | TGI (SF-539 CNS): 2650 nM | GI50 (HCT-15 colon): 579 nM | TGI (HCT-15 colon): 2100 nM | GI50 (RXF 393 renal): 87.7 nM | TGI (RXF 393 renal): 365 nM | GI50 (SK-OV-3 ovarian): 490 nM | TGI (SK-OV-3 ovarian): 1650 nM | GI50 (MCF7 breast): 264 nM | TGI (MCF7 breast): 1300 nM | GI50 (MOLT-4 leukemia): 137 nM | TGI (MOLT-4 leukemia): 267 nM | GI50 (SR leukemia): 88.4 nM | TGI (SR leukemia): 204 nM | GI50 (HOP-92 NSCLC): 343 nM | TGI (HOP-92 NSCLC): 1070 nM | GI50 (NCI/ADR-RES ovarian): 210 nM | TGI (NCI/ADR-RES ovarian): 551 nM | GI50 (SF-268 CNS): 517 nM | TGI (SF-268 CNS): 1660 nM | GI50 (RPMI-8226 leukemia): 95.7 nM | TGI (RPMI-8226 leukemia): 221 nM | GI50 (U251 glioblastoma): 430 nM | TGI (U251 glioblastoma): 1340 nM | GI50 (MDA-MB-231 breast): 249 nM | TGI (MDA-MB-231 breast): 575 nM | GI50 (TK-10 renal): 445 nM | TGI (TK-10 renal): 2000 nM | GI50 (KM12 colon): 128 nM | TGI (KM12 colon): 1720 nM | GI50 (NCI-H226 lung): 1260 nM | TGI (NCI-H226 lung): 3050 nM | GI50 (T-47D breast): 208 nM | TGI (T-47D breast): 547 nM | GI50 (PC-3 prostate): 433 nM | TGI (PC-3 prostate): 1760 nM | GI50 (OVCAR-5 ovarian): 369 nM | TGI (OVCAR-5 ovarian): 1480 nM | GI50 (HCT-116 colon): 205 nM | TGI (HCT-116 colon): 630 nM | GI50 (NCI-H522 lung): 155 nM | TGI (NCI-H522 lung): 610 nM | GI50 (HS 578T breast): 474 nM | TGI (HS 578T breast): 1600 nM | GI50 (HCC-2998 colon): 490 nM | TGI (HCC-2998 colon): 1220 nM
